In the supplement of paper PMC10307832:

Legend:
Test in all cases: relative viability (nuclei count vs DMSO), 5 days (fraction); higher = more cells survive
Imatinib + Bortezomib = compound: Cc1ccc(NC(=O)c2ccc(CN3CCN(C)CC3)cc2)cc1Nc1nccc(-c2cccnc2)n1 [Imatinib] + CC(C)C[C@H](NC(=O)[C@H](Cc1ccccc1)NC(=O)c1cnccn1)B(O)O [Bortezomib] (partner 0.002 µM)
In short: (§1)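 Lung cancer cell lines were seeded in 1536-well plates and dosed by pin tool the next day, with either a single drug or a fixed anchor-drug dose combined with five library-drug doses (not always all listed) spaced in √10 steps. Five days later, one step fixed the cells and stained their nuclei (final 0.05% Triton X-100, 1% formaldehyde, 1 ug/ml Hoechst), and nuclei were counted on 4× images. Relative viability is the nuclei count in treated wells divided by the count in vehicle wells, and each value is the median of duplicate plates.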

Imatinib + Linsitinib = compound: Cc1ccc(NC(=O)c2ccc(CN3CCN(C)CC3)cc2)cc1Nc1nccc(-c2cccnc2)n1 [Imatinib] + C[C@]1(O)C[C@@H](c2nc(-c3ccc4ccc(-c5ccccc5)nc4c3)c3c(N)nccn32)C1 [Linsitinib] (partner 1 µM)
In short: as §1

Imatinib + Luminespib = compound: Cc1ccc(NC(=O)c2ccc(CN3CCN(C)CC3)cc2)cc1Nc1nccc(-c2cccnc2)n1 [Imatinib] + CCNC(=O)c1noc(-c2cc(C(C)C)c(O)cc2O)c1-c1ccc(CN2CCOCC2)cc1 [Luminespib] (partner 0.01 µM)
In short: as §1

Imatinib + AZD7762 = compound: Cc1ccc(NC(=O)c2ccc(CN3CCN(C)CC3)cc2)cc1Nc1nccc(-c2cccnc2)n1 [Imatinib] + NC(=O)Nc1cc(-c2cccc(F)c2)sc1C(=O)N[C@H]1CCCNC1 [AZD7762] (partner 0.2 µM)
In short: as §1

Cell Line | relative viability (Imatinib + Bortezomib; first compound 0.02 µM) | relative viability (Imatinib + Bortezomib; first compound 0.06325 µM) | relative viability (Imatinib + Bortezomib; first compound 0.2 µM) | relative viability (Imatinib + Bortezomib; first compound 0.6325 µM) | relative viability (Imatinib + Bortezomib; first compound 2 µM) | relative viability (Imatinib + Linsitinib; first compound 0.02 µM) | relative viability (Imatinib + Linsitinib; first compound 0.06325 µM) | relative viability (Imatinib + Linsitinib; first compound 0.2 µM) | relative viability (Imatinib + Linsitinib; first compound 0.6325 µM) | relative viability (Imatinib + Linsitinib; first compound 2 µM) | relative viability (Imatinib + Luminespib; first compound 0.02 µM) | relative viability (Imatinib + Luminespib; first compound 0.2 µM) | relative viability (Imatinib + Luminespib; first compound 0.6325 µM) | relative viability (Imatinib + Luminespib; first compound 2 µM) | relative viability (Imatinib + AZD7762; first compound 0.02 µM) | relative viability (Imatinib + AZD7762; first compound 0.2 µM) | relative viability (Imatinib + AZD7762; first compound 0.6325 µM) | relative viability (Imatinib + AZD7762; first compound 2 µM) | relative viability (Imatinib + Luminespib; first compound 0.06325 µM) | relative viability (Imatinib + AZD7762; first compound 0.06325 µM)
EBC-1 | 0.556 | 0.623 | 0.52 | 0.58 | 0.423 | 1.18 | 0.974 | 1.07 | 1.04 | 0.818 |  |  |  |  |  |  |  |  |  | 
NCI-H727 | 0.93 | 0.812 |  | 0.868 | 0.745 | 0.301 | 0.249 | 0.277 | 0.299 | 0.347 | 0.319 | 0.242 | 0.323 | 0.31 | 0.651 | 0.506 | 0.573 | 0.507 |  | 
Calu-6 | 1.13 | 1.06 | 1.01 | 1.08 | 0.867 | 0.993 | 0.997 | 1.07 | 0.967 | 1.04 |  |  |  |  |  |  |  |  |  | 
LOU-NH91 | 0.557 | 0.517 | 0.51 | 0.423 | 0.479 | 0.993 | 0.964 | 0.996 | 0.869 | 0.87 | 0.319 | 0.361 | 0.347 | 0.303 | 0.784 | 0.81 | 0.809 | 0.749 | 0.35 | 0.829
NCI-H1993 |  |  | 0.954 | 1.11 | 1.02 |  | 0.73 | 0.747 | 0.72 | 0.707 | 0.949 | 0.885 | 0.608 | 0.854 | 1.08 | 0.724 | 0.736 | 0.701 | 0.745 | 0.728
NCI-H322M | 1.16 | 1.34 | 1.26 | 1.1 | 1.1 | 1.01 | 0.895 |  | 0.891 | 0.981 | 0.987 | 0.826 | 0.873 | 0.826 | 0.565 | 0.529 | 0.608 | 0.586 | 0.868 | 0.673
NCI-H2347 | 0.846 |  | 1.04 | 1 | 0.876 | 0.943 | 0.839 | 0.965 |  | 0.978 | 0.499 | 0.431 | 0.475 | 0.608 | 0.824 | 0.848 |  | 0.657 | 0.425 | 
NCI-H1437 | 0.697 | 0.528 | 0.541 | 0.432 | 0.547 |  | 1.18 | 1.42 |  | 1.04 | 1.25 | 1.28 | 1.22 | 1.08 | 1.24 | 1.09 | 1.04 | 1.14 | 1.18 | 1.07
HCC-44 | 1.04 | 0.945 | 0.979 | 0.896 | 0.813 | 0.801 |  | 0.664 | 0.549 | 0.646 | 1.24 |  | 0.959 |  |  | 1.13 | 1.01 | 0.968 | 0.552 | 
NCI-H1651 | 1.03 | 0.83 | 0.964 | 0.955 | 0.893 | 1.09 | 1.14 | 1.21 | 0.946 | 1.11 | 0.926 | 0.947 | 0.749 | 0.83 | 0.543 | 0.488 | 0.468 | 0.403 | 0.829 | 0.267
